Test results reported in US11731968B2, “Tricyclic protein kinase inhibitors for promoting liver regeneration or reducing or preventing hepatocyte death” (HEPAREGENIX GMBH, priority 2018, dated 2023).

Legend:
[1] = target: T1, MKK4 (Homo sapiens, UniProt P45985); assay: KINOMEscan competition binding assay, MKK4 potency; details: compound concentration 100 nM; lower numbers indicate stronger binding
T1 construct: S84/D399; host or cells: HEK-293
T1 sequence (P45985 84-399): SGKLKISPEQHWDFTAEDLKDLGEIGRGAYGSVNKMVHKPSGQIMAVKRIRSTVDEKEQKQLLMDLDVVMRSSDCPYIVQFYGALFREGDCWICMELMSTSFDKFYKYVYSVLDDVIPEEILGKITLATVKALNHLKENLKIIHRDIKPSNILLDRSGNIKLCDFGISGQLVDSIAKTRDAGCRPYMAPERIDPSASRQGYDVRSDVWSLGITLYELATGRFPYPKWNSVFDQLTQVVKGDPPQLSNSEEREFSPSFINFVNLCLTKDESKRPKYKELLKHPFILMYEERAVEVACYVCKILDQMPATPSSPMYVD
Description: (§1) The assay was performed by combining three components: DNA-tagged kinase; immobilized ligand; and a test compound. The ability of the test compound to compete with the immobilized ligand was measured via quantitative PCR of the DNA tag. The technology is described in detail in Fabian, M. A. et al., A small molecule-kinase interaction map for clinical kinase inhibitors. Nat.
(§2) For investigation of the affinity to MKK4, MKK7 and JNK1, the kinases were produced in HEK-293 cells and subsequently tagged with DNA for qPCR detection. […] The liganded beads were blocked with excess biotin and washed with blocking buffer (SEABLOCK™ (Pierce), 1% BSA, 0.05% TWEEN®20, 1 mM DTT) to remove unbound ligand and to reduce nonspecific binding. […] All reactions were performed in polystyrene 96-well plates in a final volume of 0.135 mL. […] The kinase concentration in the eluates was measured by qPCR.
(§3) The test compounds were provided as 10 mM stock solutions. The test solutions at indicated final concentrations were prepared at DiscoverX.

[2] = target: T2, JNK1 (Homo sapiens, UniProt P45983); assay: KINOMEscan competition binding, selectivity against off-target JNK1 (PoC ratio JNK1/MKK4); details: compound concentration 100 nM
T2 construct: M1/Q384; host or cells: HEK-293
T2 sequence (P45983 1-384 isoform P45983-2): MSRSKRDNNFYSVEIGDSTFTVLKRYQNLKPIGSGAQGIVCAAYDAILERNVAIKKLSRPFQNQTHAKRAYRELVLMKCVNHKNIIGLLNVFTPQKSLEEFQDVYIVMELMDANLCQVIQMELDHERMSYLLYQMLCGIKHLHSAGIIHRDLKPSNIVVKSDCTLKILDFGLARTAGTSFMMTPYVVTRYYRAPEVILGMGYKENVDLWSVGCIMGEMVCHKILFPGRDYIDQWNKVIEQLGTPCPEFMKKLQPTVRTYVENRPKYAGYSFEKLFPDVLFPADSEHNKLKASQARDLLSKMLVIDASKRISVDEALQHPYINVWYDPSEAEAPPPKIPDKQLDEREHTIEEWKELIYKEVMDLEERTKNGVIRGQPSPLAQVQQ
Description: as §1, §2, §3

[3] = target: T3, MKK7 (Homo sapiens, UniProt O14733); assay: KINOMEscan competition binding, selectivity against off-target MKK7 (PoC ratio MKK7/MKK4); details: compound concentration 100 nM
T3 construct: M1/R419; host or cells: HEK-293
T3 sequence (O14733 1-419): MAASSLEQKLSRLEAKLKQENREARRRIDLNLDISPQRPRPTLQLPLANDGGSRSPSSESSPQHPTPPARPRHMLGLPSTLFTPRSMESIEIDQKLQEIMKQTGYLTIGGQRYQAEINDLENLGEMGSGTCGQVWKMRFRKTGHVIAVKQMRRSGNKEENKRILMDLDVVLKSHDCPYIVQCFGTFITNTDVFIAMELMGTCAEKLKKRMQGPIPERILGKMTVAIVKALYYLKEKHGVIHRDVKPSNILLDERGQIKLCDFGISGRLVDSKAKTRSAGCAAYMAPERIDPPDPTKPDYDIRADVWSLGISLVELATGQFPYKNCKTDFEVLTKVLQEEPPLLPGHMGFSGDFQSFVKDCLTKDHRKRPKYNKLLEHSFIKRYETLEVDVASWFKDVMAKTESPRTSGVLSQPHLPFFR
Description: as §1, §2, §3

[4] = target: BRaf (Homo sapiens, UniProt P15056); assay: KINOMEscan competition binding, selectivity against off-target BRaf (PoC ratio BRaf/MKK4); details: compound concentration 100 nM
BRaf, sequence (P15056 whole entry): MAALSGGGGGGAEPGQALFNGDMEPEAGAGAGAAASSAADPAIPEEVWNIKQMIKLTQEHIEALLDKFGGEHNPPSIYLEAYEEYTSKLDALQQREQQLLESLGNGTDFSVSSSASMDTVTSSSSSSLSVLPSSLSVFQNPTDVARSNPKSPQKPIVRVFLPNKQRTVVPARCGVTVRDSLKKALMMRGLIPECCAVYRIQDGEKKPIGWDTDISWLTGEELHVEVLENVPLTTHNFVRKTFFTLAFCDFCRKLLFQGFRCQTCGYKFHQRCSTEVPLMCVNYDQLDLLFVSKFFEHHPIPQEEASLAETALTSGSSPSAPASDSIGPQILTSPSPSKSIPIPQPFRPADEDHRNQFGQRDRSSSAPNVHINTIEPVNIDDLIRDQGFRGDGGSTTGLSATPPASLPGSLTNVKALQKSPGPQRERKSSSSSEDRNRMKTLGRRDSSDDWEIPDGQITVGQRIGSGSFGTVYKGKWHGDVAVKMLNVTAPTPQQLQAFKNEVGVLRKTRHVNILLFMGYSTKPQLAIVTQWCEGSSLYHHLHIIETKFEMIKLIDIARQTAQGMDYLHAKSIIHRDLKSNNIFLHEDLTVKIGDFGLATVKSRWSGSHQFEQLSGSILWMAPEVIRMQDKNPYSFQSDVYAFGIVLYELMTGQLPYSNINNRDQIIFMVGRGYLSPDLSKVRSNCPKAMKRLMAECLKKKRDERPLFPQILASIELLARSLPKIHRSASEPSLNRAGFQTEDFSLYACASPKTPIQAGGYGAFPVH
Description: as §1, §3

| MKK4 residual percent of control binding (PoC) [1] | Selectivity vs. JNK1, ratio PoC(JNK1)/PoC(MKK4) [2] | Selectivity vs. MKK7, ratio PoC(MKK7)/PoC(MKK4) [3] | Selectivity vs. BRaf, ratio PoC(BRaf)/PoC(MKK4) [4] | SMILES |
| --- | --- | --- | --- | --- |
| + + + | +++ (PoC(JNK1)/PoC(MKK4) ≥ 30 = “+++”) | +++ (PoC(MKK7)/PoC(MKK4) ≥ 30 = “+++”) | +++ (PoC(BRaf)/PoC(MKK4) ≥ 30 = “+++”) | CCCS(=O)(=O)Nc1ccc(F)c(C(=O)c2ccc3[nH]c4ncc(-c5ccncc5)cc4c3c2)c1F [Example 4a] |
| + + | +++ (PoC(JNK1)/PoC(MKK4) ≥ 30 = “+++”) | +++ (PoC(MKK7)/PoC(MKK4) ≥ 30 = “+++”) | +++ (PoC(BRaf)/PoC(MKK4) ≥ 30 = “+++”) | CCCS(=O)(=O)Nc1ccc(F)c(C(=O)c2ccc3[nH]c4ncc(-c5ccc(S(N)(=O)=O)cc5)cc4c3c2)c1F [Example 4b] |
| + + + | +++ (PoC(JNK1)/PoC(MKK4) ≥ 30 = “+++”) | +++ (PoC(MKK7)/PoC(MKK4) ≥ 30 = “+++”) | +++ (PoC(BRaf)/PoC(MKK4) ≥ 30 = “+++”) | CCCS(=O)(=O)Nc1ccc(F)c(C(=O)c2ccc3[nH]c4ncc(-c5ccc(C(N)=O)cc5)cc4c3c2)c1F [Example 4e] |
| + + | +++ (PoC(JNK1)/PoC(MKK4) ≥ 30 = “+++”) | +++ (PoC(MKK7)/PoC(MKK4) ≥ 30 = “+++”) | +++ (PoC(BRaf)/PoC(MKK4) ≥ 30 = “+++”) | CCCS(=O)(=O)Nc1ccc(F)c(C(=O)c2ccc3[nH]c4ncc(-c5ccc(-c6nnn[nH]6)cc5)cc4c3c2)c1F [Example 4f] |
| + + + | +++ (PoC(JNK1)/PoC(MKK4) ≥ 30 = “+++”) | +++ (PoC(MKK7)/PoC(MKK4) ≥ 30 = “+++”) | +++ (PoC(BRaf)/PoC(MKK4) ≥ 30 = “+++”) | CS(=O)(=O)Nc1ccc(F)c(C(=O)c2ccc3[nH]c4ncc(-c5ccc(S(N)(=O)=O)cc5)cc4c3c2)c1F [Example 4j] |
| + + + | +++ (PoC(JNK1)/PoC(MKK4) ≥ 30 = “+++”) | +++ (PoC(MKK7)/PoC(MKK4) ≥ 30 = “+++”) | +++ (PoC(BRaf)/PoC(MKK4) ≥ 30 = “+++”) | CCS(=O)(=O)Nc1ccc(F)c(C(=O)c2ccc3[nH]c4ncc(-c5ccc(S(N)(=O)=O)cc5)cc4c3c2)c1F [Example 4k] |
| + + + | +++ (PoC(JNK1)/PoC(MKK4) ≥ 30 = “+++”) | +++ (PoC(MKK7)/PoC(MKK4) ≥ 30 = “+++”) | +++ (PoC(BRaf)/PoC(MKK4) ≥ 30 = “+++”) | CCCS(=O)(=O)Nc1ccc(F)c(C(=O)c2ccc3[nH]c4ncc(-c5ccc(OCC(O)CO)cc5)cc4c3c2)c1F (centres unmarked) [Example 4m] |
| + + + | +++ (PoC(JNK1)/PoC(MKK4) ≥ 30 = “+++”) | +++ (PoC(MKK7)/PoC(MKK4) ≥ 30 = “+++”) | +++ (PoC(BRaf)/PoC(MKK4) ≥ 30 = “+++”) | CCCS(=O)(=O)Nc1ccc(F)c(C(=O)c2ccc3[nH]c4ncc(-c5ccc(C(=O)O)cc5)cc4c3c2)c1F [Example 4n] |
| + + + | +++ (PoC(JNK1)/PoC(MKK4) ≥ 30 = “+++”) | +++ (PoC(MKK7)/PoC(MKK4) ≥ 30 = “+++”) | +++ (PoC(BRaf)/PoC(MKK4) ≥ 30 = “+++”) | CCCS(=O)(=O)Nc1ccc(F)c(C(=O)c2ccc3[nH]c4ncc(-c5ccc(N)nc5)cc4c3c2)c1F [Example 7, N-(3-(3-(6-aminopyridin-3-yl)-9H-pyrido[2,3-b]indole-6-carbonyl)-2,4-difluorophenyl)propane-1-sulfonamide] |
| + (10 ≤ PoC < 30 = “+”) | +++ (PoC(JNK1)/PoC(MKK4) ≥ 30 = “+++”) | +++ (PoC(MKK7)/PoC(MKK4) ≥ 30 = “+++”) | +++ (PoC(BRaf)/PoC(MKK4) ≥ 30 = “+++”) | CCCS(=O)(=O)Nc1cccc(C(=O)c2ccc3[nH]c4ncc(Cl)cc4c3c2)c1F [Example 8, N-(3-(3-chloro-9H-pyrido[2,3-b]indole-6-carbonyl)-2-fluorophenyl)propane-1-sulfonamide] |
| + + + | +++ (PoC(JNK1)/PoC(MKK4) ≥ 30 = “+++”) | +++ (PoC(MKK7)/PoC(MKK4) ≥ 30 = “+++”) | +++ (PoC(BRaf)/PoC(MKK4) ≥ 30 = “+++”) | CS(=O)(=O)Nc1c(F)ccc(C(=O)c2ccc3[nH]c4ncc(Cl)cc4c3c2)c1F [Example 9, N-(3-(3-chloro-9H-pyrido[2,3-b]indole-6-carbonyl)-2,6-difluorophenyl)methanesulfonamide] |
